Molecular target: T1, AKR1A1 (Homo sapiens, UniProt P14550)
T1 sequence (P14550 1-325): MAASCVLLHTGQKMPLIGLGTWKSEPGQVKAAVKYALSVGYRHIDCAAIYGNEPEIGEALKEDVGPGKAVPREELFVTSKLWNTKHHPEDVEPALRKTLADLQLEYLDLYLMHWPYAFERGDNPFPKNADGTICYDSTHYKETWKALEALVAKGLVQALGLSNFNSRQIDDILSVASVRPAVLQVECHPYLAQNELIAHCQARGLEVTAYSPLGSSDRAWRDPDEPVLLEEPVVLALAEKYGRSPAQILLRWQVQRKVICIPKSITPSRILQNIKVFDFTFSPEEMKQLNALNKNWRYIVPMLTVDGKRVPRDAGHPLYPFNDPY
Test: AKR activity measured using S-nitroso-Coenzyme A (SNO-CoA) as a substrate; selectivity for AKR1A1 versus AKR1B1
Type: biochemical
Text: In some embodiments, the selectivity of the AKR inhibitor for AKR1A1 inhibition versus other AKRs, such as AKR1B1, can be measured using S-nitroso-Coenzyme A (SNO-CoA) as a substrate. In this instance where SNO-CoA is used as a substrate to measure AKR activity, the AKR inhibitor can have a selectivity for AKR1A1 versus AKR1B1 of ≥1 time, ≥2 times, ≥5 times, ≥10 times, ≥20 times, ≥30 times, ≥40 times, ≥50 times or more. By way of example, JSD-26-1, which is described in the example below, has an AKR1A1/AKR1B1 selectivity of at least 9. In some embodiments, the AKR inhibitor can have negligible inhibition of AKR1B1 activity of SNO-CoA, and particularly compared to AKR1A1 activity.

O=C1NC(=O)C2(N1)c1ccccc1-c1ccc(C3CC3)cc12 (stereo not shown) [JSD-26-1]
AKR1A1/AKR1B1 selectivity: at least 9

Source: US12098135B2, “Aldoketo reductase inhibitors and uses thereof” (CASE WESTERN RESERVE UNIVERSITY, priority 2018, dated 2024)
